From US5063225A, “Benzothiazepines” (Roussel Uclaf, priority 1989, dated 1991)
Structures can show the parent of a compound that is named as a salt. Where two headings read alike, the source gives them in different places.

Legend:
[1] = tested on: ventricular extrasystoles initiated by aconitine in rats; test: Anti-arhythmic action in the rat (aconitine-induced ventricular extrasystoles); type: in vivo; details: relative to control animals
Procedure: 1) Anti-arhythmic action in the rat
Male rats weighing 300-350 g, anaesthetized by intraperitoneal route using 1.20 g/kg of urethane, were tracheotomized and subjected to artificial respiration (40-50 insufflations of 3 ml/minute). Needles were implanted subcutaneously to record the electro-cardiogram of the rats on the signal in the DII derivation. The products under test were administered by intravenous route or by oral route. After five minutes in the case of administration intravenously and one hour in the case of oral administration, the jugular vein of the rats was perfused with 10 micrograms/min. under 0.2 ml of an aconitine solution. The time taken for the first ventricular extrasystoles to appear was noted and the amount of aconitine perfused was calculated, then expressed as a function of the body weight of the animal.
The percentage of increase of the aconitine dose necessary to initiate the ventricular extrasystoles after treatment was calculated relative to the control animals.

[2] = tested on: broncho-constriction induced by serotonin; test: Anti-serotoninergic activity: broncho-constriction in a guinea-pig induced by serotonin; type: in vivo; details: 1 mg/kg injected via jugular vein one minute before serotonin (3 to 5 micrograms/kg IV)
Procedure: 3) Test for Anti-Serotoninergic Activity Broncho-constriction in a guinea-pig induced by serotonin. The pulmonary resistance to insufflation was measured by the technique of "overflow" according to KONZETT et al [Arch. Ex. Pathol. Pharmakol, 1940, Vol. 195, p. 71]. The guinea-pigs were anaesthetized with urethane and the jugular vein was catherized to inject the products, and the trachea was catheterized to insert artificial ventilation. Broncho-constriction was induced by a dose of 3 to 5 micrograms/kg of serotonin injected intravenously and the antagonists were injected one minute before the induction of the broncho-spasm. It can be noted from the results of the table below that the products of the present Application have a strong anti-serontoninergic activity.

mouse = test: Study of the acute toxicity; type: in vivo; details: single administration
Procedure: 4) Study of the Acute Toxicity
The lethal doses LD of the various compounds under test were evaluated after a single administration intraperitoneally or orally to a mouse.

[3] = tested on: blood-platelets (rabbit PRP); test: Blood-platelet aggregation, in vitro, on plasma rich in blood-platelets (PRP); type: cell-based; details: Oryctolagus cuniculus, 2 min, 2 minutes incubation, read-out: IC50 (concentration inhibiting the aggregation by 50%)
From the text: 2) Test for the Activity of Anti-Aggregation of Blood-Platelets. Blood-Platelet Aggregation, In Vitro, on Plasma Rich in Blood-Platelets (PRP)
Measurement of blood-platelet aggregation was made by the turbidimetric method of Born et al 1963, J. Physiol., Vol. 168, p. 178. Rabbit's blood was removed on Na citrate at 3.2% by cardiac puncture and the plasma rich in blood-platelets was obtained by centrifuging and adjustment of the number of blood-platelets to 300,000 per microliter. The aggregation was induced by collagen (40 micrograms per ml of PRP) or PAF acether (0.05 micromoles per liter of PRP). The compounds under test were incubated at different concentrations in the PRP 2 minutes before the aggregating agent. The results were expressed in IC50 (concentration inhibiting the aggregation by 50% relative to the control curves).

[4] = IV, 5 mg/kg, five minutes before aconitine
[5] = oral (O), 25 mg/kg, one hour before aconitine
[6] = induction by PAF-ACETHER (0.05 micromoles per liter of PRP)
[7] = induction by collagen (40 micrograms per ml of PRP)

## COc1ccc(C2CSc3ccccc3N(CCN(C)C)C2=O)cc1 (stereo not shown) [Example 13, 2,3-dihydro-5-8 2-(dimethylamino)-ethyl]-3-(4-methoxy phenyl)-1,5-benzothiazepin-4(5H)-one (E)-2-butenedioate]
[1]; [4]
  Percentage of increase of the aconitine dose for initiating the extrasystoles: 24%
[1]; [5]
  Percentage of increase of the aconitine dose for initiating the extrasystoles: 35%
[2]
  Percentage of inhibition of the broncho-constriction: 87%
mouse; IP
  LD0 (maximum dose which did not cause any deaths over 8 days): 80 mg/kg
mouse; oral (O)
  LD0 (maximum dose which did not cause any deaths over 8 days): > 200 mg/kg

## CCN(CC)CCN1C(=O)C(c2ccc(OC)cc2)CSc2ccccc21.O=C(O)C(=O)O (stereo not shown) [Example 5, 5-[2-(diethylamino)-ethyl]-2,3-dihydro-3-(4-methoxyphenyl)-1,5-benzothiazepin-4(5H)-one ethanedioate]
[2]
  Percentage of inhibition of the broncho-constriction: 87%

## COc1ccc(C2CSc3ccccc3N(CCN3CCCC3)C2=O)cc1 (stereo not shown) [Example 1, 2,3-dihydro-3-(4-methoxy-phenyl)-5-[2-(1-pyrrolidinyl)-ethyl]-1,5-benzothiazepin-4(5H)-one (Z)-2-butenedioate]
[3]; [6]
  IC50: 78 µM
[3]; [7]
  IC50: 74 µM
[2]
  Percentage of inhibition of the broncho-constriction: 79%

## COc1ccc(C2CSc3ccccc3N(CCN(C(C)C)C(C)C)C2=O)cc1 (racemic) [Example 9, (±)-5-[2-[[bis(1-methylethyl)]-amino]-ethyl]-2,3-dihydro-3-(4-methoxyphenyl)-1,5-benzothiazepin-4(5H)-one hydrochloride]
[3]; [6]
  IC50: 58 µM
[3]; [7]
  IC50: 66 µM

## COc1ccc(C2CSc3ccccc3N(CCCN(C)C)C2=O)cc1 (stereo not shown) [Example 6, 2,3-dihydro-5-[3-(dimethylamino)-propyl]-3-(4-methoxyphenyl)-1,5-benzothiazepin-4(5H)-one (E)-butenedioate]
[1]; [4]
  Percentage of increase of the aconitine dose for initiating the extrasystoles: 142%
[1]; [5]
  Percentage of increase of the aconitine dose for initiating the extrasystoles: > 188%
mouse; IP
  LD0 (maximum dose which did not cause any deaths over 8 days): 100 mg/kg
mouse; oral (O)
  LD0 (maximum dose which did not cause any deaths over 8 days): 100 mg/kg

## CN(C)CCN1C(=O)C(c2ccc(Cl)cc2)CSc2ccccc21.Cl (stereo not shown) [Example 11, 3-(4-chloro-phenyl)-2,3-dihydro-5-[2-(dimethylamino)-ethyl]-1,5-benzothiazepin-4(5H)-one hydrochloride]
[1]; [4]
  Percentage of increase of the aconitine dose for initiating the extrasystoles: 32%
[1]; [5]
  Percentage of increase of the aconitine dose for initiating the extrasystoles: 135%
[3]; [6]
  IC50: 40 µM
[3]; [7]
  IC50: 8 µM
[2]
  Percentage of inhibition of the broncho-constriction: 82%
mouse; IP
  LD0 (maximum dose which did not cause any deaths over 8 days): 80 mg/kg
mouse; oral (O)
  LD0 (maximum dose which did not cause any deaths over 8 days): 100 mg/kg

## COc1ccccc1C1CSc2ccccc2N(CCN(C)C)C1=O.Cl (stereo not shown) [Example 12, 2,3-dihydro-5-[2-(dimethylamino)-ethyl]-3-(2-methoxy-phenyl)-1,5-benzothiazepin-4(5H)-one hydrochloride]
[3]; [6]
  IC50: 9 µM
[3]; [7]
  IC50: 56 µM
[2]
  Percentage of inhibition of the broncho-constriction: 64%
mouse; IP
  LD0 (maximum dose which did not cause any deaths over 8 days): 100 mg/kg
mouse; oral (O)
  LD0 (maximum dose which did not cause any deaths over 8 days): > 200 mg/kg

## COc1ccc(C2CSc3ccccc3N(CCN3CCN(C)CC3)C2=O)cc1 (stereo not shown) [Example 7, 2,3-dihydro-3-(4-methoxyphenyl)-5-[2-(4-methyl-1-piperazinyl)-ethyl]-1,5-benzothiazepin-4(5H)-one dichlorhydrate]
[1]; [4]
  Percentage of increase of the aconitine dose for initiating the extrasystoles: 25%
[1]; [5]
  Percentage of increase of the aconitine dose for initiating the extrasystoles: 129%
mouse; IP
  LD0 (maximum dose which did not cause any deaths over 8 days): 100 mg/kg
mouse; oral (O)
  LD0 (maximum dose which did not cause any deaths over 8 days): 100 mg/kg
